Laboratory results published in patent publication US4351948A, “Imidazole hydrazone derivatives” (priority 1980, dated 1982).
Structures can show the parent of a compound that is named as a salt. Where two headings read alike, the source gives them in different places.

What was measured:
Assay in all cases: Antianaerobic activity, MIC by standard broth dilution method (Table II)
Type in all cases: cell-based
[1] = system: C. sporogenes ATCC 19404; conditions: Clostridium sporogenes, ATCC19404, 24 h
Procedure: (§1) The activity of the compounds identified in the Table II below was tested for antianaerobic activity against one strain of Bacteroides fragilis, one strain of Bacteroides uniformis, one strain of Clostridium sporogenes and one strain of Trichomonas vaginalis as the test organism. The methods used involved determining the minimum inhibitory concentration by the standard broth dilution method. The values for metronidazole (2-methyl-5-nitro-1H-imidazole-1-ethanol) are given above for reference purposes. For convenience the compounds are referred to by an internal reference number (an HC number) and this is correlated with the number of the Example wherein its production is described.

[2] = system: B. fragilis ATCC 23745; conditions: Bacteroides fragilis, ATCC23745, 24 h, read-out: Minimal Inhibitory Concentration (MIC)
Procedure: as §1, with “The values for metronidazole (2-methyl-5-nitro-1H-imidazole-1-ethanol) are given above for reference purposes.” left out

[3] = system: B. uniformis ATCC 8492; conditions: Bacteroides uniformis, ATCC8492, 24 h, read-out: Minimal Inhibitory Concentration (MIC)
Procedure: as §1, with “The values for metronidazole (2-methyl-5-nitro-1H-imidazole-1-ethanol) are given above for reference purposes.” left out

[4] = system: T. vaginalis ATCC 30001; conditions: Trichomonas vaginalis, ATCC30001, 24 h, read-out: Minimal Inhibitory Concentration (MIC)
Procedure: as §1, with “The values for metronidazole (2-methyl-5-nitro-1H-imidazole-1-ethanol) are given above for reference purposes.” left out

[5] = Test 1, read-out: Minimal Inhibitory Concentration (MIC)
[6] = Test 2, read-out: Minimal Inhibitory Concentration (MIC)
[7] = Test 3, read-out: Minimal Inhibitory Concentration (MIC)

Row | SMILES | MIC [1, 5] [µg/mL] | MIC [1, 6] [µg/mL] | MIC [1, 7] [µg/mL] | MIC ([2]; Test 1) [µg/mL] | MIC ([2]; Test 2) [µg/mL] | MIC ([2]; Test 3) [µg/mL] | MIC ([3]; Test 1) [µg/mL] | MIC ([3]; Test 2) [µg/mL] | MIC ([3]; Test 3) [µg/mL] | MIC ([4]; Test 2) [µg/mL] | MIC ([4]; Test 3) [µg/mL] | MIC ([4]; Test 1) [µg/mL] | MIC ([1]; read-out: Minimal Inhibitory Concentration (MIC), Test 1) [µg/mL] | MIC ([1]; read-out: Minimal Inhibitory Concentration (MIC), Test 3) [µg/mL]
1 | Cl.FC(F)(F)c1cccc(C(Cn2ccnc2)=NNc2c(Cl)cccc2Cl)c1 [HC474, 1-(3-trifluoromethylphenyl)-2-(1H-imidazol-1-yl)ethanone, 2,6-dichlorophenylhydrazone, hydrochloride] | 7.5 | 5 | 5 | 5 | 7.5 | 7.5 | 10 | 5 | 7.5 | 50 | 50 | – | – | –
2 | Cl.Clc1ccc(NN=C(Cn2ccnc2)c2ccccc2)c(Cl)c1 [HC-306, 1-Phenyl-2-(1H-imidazol-1-yl)ethanone, 2,4-dichlorophenylhydrazone, hydrochloride] | 10 | 2.5 | 2.5 | 10 | 2.5 | 2.5 | 10 | 2.5 | 2.5 | 50 | 25 | 50 | – | –
3 | Clc1ccc(NN=C(Cn2ccnc2)c2ccc(Cl)s2)c(Cl)c1 [HC-363, 1-(5-chlorothien-2-yl)-2-(1H-imidazol-1-yl) ethanone, 2,4-dichlorophenylhydrazone, hydrochloride] | 2.5 | 2.5 | 7.5 | 1 | 2.5 | 2.5 | 2.5 | 2.5 | 2.5 | 50 | 50 | 50 | – | –
4 | Cl.Clc1cccc(Cl)c1NN=C(Cn1ccnc1)c1ccc(Br)cc1 [HC-364, 1-(4-bromophenyl)-2-(1H-imidazol-1-yl)ethanone, 2,6-dichlorophenylhydrazone, hydrochloride] | 10 | 5 | 25 | 10 | 2.5 | 5 | 10 | 2.5 | 2.5 | 50 | 50 | 50 | – | –
5 | Clc1ccc(NN=C(Cn2ccnc2)c2ccc(Br)cc2)c(Cl)c1 [HC-378, 1-(4-bromophenyl)-2-(1H-imidazol-1-yl) ethanone, 2,4-dichlorophenylhydrazone, hydrochloride] | 50 | 25 | 25 | 10 | 2.5 | 2.5 | 10 | 2.5 | 5 | > 50 | 50 | > 50 | – | –
6 | Clc1ccc(NN=C(Cn2ccnc2)c2ccc(Cl)cc2Cl)c(Cl)c1 [HC-380, 1-(2,4-dichlorophenyl)-2-(1H-imidazol-1-yl) ethanone, 2,4-dichlorophenylhydrazone, hydrochloride] | 10 | 2.5 | 2.5 | 10 | 2.5 | 2.5 | 10 | 2.5 | 2.5 | 25 | 25 | 50 | – | –
7 | CC(C(=NNc1c(Cl)cccc1Cl)c1ccc(Cl)cc1)n1ccnc1 (centres unmarked) [HC-403, 1-(4-chlorophenyl)-2-(1H-imidazol-1-yl)propanone, 2,6-dichlorophenylhydrazone, hydrochloride] | – | 7.5 | – | 5 | 2.5 | 5 | 2.5 | 2.5 | 2.5 | 7.5 | < 50 | < 50 | 1 | 50
8 | Cl.Clc1ccc(C(Cn2ccnc2)=NNc2c(Cl)cc(Cl)cc2Cl)c(Cl)c1 [HC-420, 1-(2,4-dichlorophenyl)-2-(1H-imidazol-1-yl)ethanone, 2,4,6-trichlorophenylhydrazone, hydrochloride] | 10 | 2.5 | 2.5 | 10 | 2.5 | 2.5 | 10 | 1 | 2.5 | 50 | 50 | 50 | – | –
9 | CC(C(=NNc1ccc(Cl)cc1Cl)c1ccc(Cl)cc1)n1ccnc1 (centres unmarked) [HC-433, 1(4-chlorophenyl)-2-(1H-imidazol-1-yl) propanone, 2,4-dichlorophenylhydrazone, hydrochloride] | 1 | 2.5 | 2.5 | 1 | 2.5 | 2.5 | 0.5 | 5 | 2.5 | 50 | 50 | 75 | – | –
10 | Cl.FC(F)(F)c1ccc(C(Cn2ccnc2)=NNc2c(Cl)cccc2Cl)cc1 [HC-438, 1-(4-trifluoromethylphenyl)-2-(1H-imidazol-1-yl)ethanone, 2,6-dichlorophenylhydrazone, hydrochloride] | 2.5 | 7.5 | 2.5 | 5 | 7.5 | 5 | 5 | 5 | 5 | 50 | 75 | 25 | – | –
11 | Cl.Clc1ccc(NN=C(Cn2ccnc2)c2ccccc2)cc1Cl [HC-442, 1-phenyl-2-(1H-imidazol-1-yl)ethanone, 3,4-dichlorophenylhydrazone, hydrochloride] | 5 | 2.5 | 2.5 | 2.5 | 5 | 5 | 2.5 | 5 | 5 | 75 | 100 | 50 | – | –
12 | COc1ccc(C(Cn2ccnc2)=NNc2cc(Cl)ccc2Cl)cc1.Cl [HC-464, 1-(4-methoxyphenyl)-2-(1H-imidazol-1-yl)ethanone, 2,5-dichlorophenylhydrazone, hydrochloride] | 2.5 | 5 | 2.5 | 2.5 | 5 | 5 | 2.5 | 2.5 | 2.5 | 50 | 50 | 10 | – | –
13 | Cl.Clc1cccc(Cl)c1NN=C(Cn1ccnc1)c1ccc(Br)s1 [HC-466, 1-(5-bromothien-2-yl)-2-(1H-imidazol-1-yl)ethanone, 2,6-dichlorophenylhydrazone, hydrochloride] | 5 | 5 | 5 | 1 | 5 | 5 | 1 | 5 | 5 | 50 | 50 | 50 | – | –
14 | Cl.Clc1ccc(Cl)c(NN=C(Cn2ccnc2)c2ccccc2Cl)c1 [HC-469, 1-(2-chlorophenyl)-2-(1H-imidazol-1-yl)ethanone, 2,5-dichlorophenylhydrazone, hydrochloride] | 2.5 | 7.5 | 1 | 5 | 5 | 10 | 5 | 1 | 2.5 | 75 | 100 | 50 | – | –
15 | Cl.Fc1ccc(C(Cn2ccnc2)=NNc2ccc(Cl)c(Cl)c2)cc1 [HC-506, 1-(4-fluorophenyl)-2-(1H-imidazol-1-yl)ethanone, 3,4-dichlorophenylhydrazone, hydrochloride] | > 50 | > 50 | – | 5 | 5 | – | 5 | 2.5 | – | – | – | – | – | –
16 | Cl.Fc1ccccc1C(Cn1ccnc1)=NNc1cccc(Cl)c1Cl [HC-507, 1-(2-fluorophenyl)-2-(1H-imidazol-1-yl)ethanone, 2,3-dichlorophenylhydrazone, hydrochloride] | 2.5 | 2.5 | – | 2.5 | 5 | – | 5 | 2.5 | – | – | – | – | – | –
